Patent US20230100235A1, “ANTICANCER AGENT COMPOSITION” (CARNA BIOSCIENCES, INC., priority 2020, published 2023)

Experiments:
OCI-Ly10 cells [1] = experiment: Cell proliferation suppression test of single agents, OCI-Ly10 (Alamar Blue, 96 h); type: cell-based, Human; conditions: Homo sapiens, OCI-Ly10, single agent, read-out: Inhibitory Activity on cell proliferation IC50 OCI-Ly10
Method: Human lymphoma cell line OCI-Ly10 cells (obtained from University Health Network) were cultured in a 5% CO2 incubator using IMDM medium (Iscove's Modified Dulbecco's Medium, Thermo Fisher Scientific Inc.) containing 20% fetal bovine serum (GE Healthcare) and 1% penicillin streptomycin (NACALAI TESQUE, INC.).
(§1) The OCI-Ly10 or U2932 cells (20000 cells/well) were seeded into 96-well plates (cell plates), to which the test compound diluted with the medium was added at final concentrations of 0.009 nM to 30000 nM (a final DMSO concentration of 0.3%), and after 96 hours of culture, an Alamar Blue reagent (Thermo Fisher Scientific Inc.) was added. After 3 hours, the fluorescence of excitation wavelength 560 nm/fluorescence wavelength 590 nm was measured and IC50 values of inhibitory activity were determined by setting a compound-free and cell-free well as 100% and a compound-free and cell-containing well as 0%.

[2] = system: BTK-C481S-mutant OCI-Ly10 cells; experiment: Cell proliferation suppression test of single agents, BTK-C481S-mutant OCI-Ly10; type: cell-based, Human; conditions: Homo sapiens, OCI-Ly10; single agent; read-out: Inhibitory activity on cell proliferation OCI-Ly10 BTK-C481S IC50
Method: as §1
(§2) BTK-C481S-mutant OCI-Ly10 cells were produced by point mutation knock-in using the CRISPR-Cas9 system. Cas9 protein (Thermo Fisher Scientific Inc.), guide RNA prepared with GeneArt™ Precision gRNA Synthesis Kit (Thermo Fisher Scientific Inc.), and a single-stranded synthetic oligonucleotide to replace 481st cysteine residue of BTK with a serine residue were introduced into OCI-Ly10 cells by an electroporation method. The resulting modified OCI-Ly10 cells were cultured in the presence of ibrutinib, and the grown cells were used as BTK-C481S-mutant OCI-Ly10 cells. Transduction of the mutation was confirmed by genomic DNA and mRNA sequence analysis.
In the same manner as in Test Example 1, IC50 values for each inhibitor single agent were determined.

[3] = system: BTK-C481S-mutant OCI-Ly10 cells; experiment: Dose-response study of BTK inhibitor in the presence of BCL-2 inhibitor, BTK-C481S-mutant OCI-Ly10; type: cell-based; conditions: Homo sapiens, read-out: Inhibitory activity on cell proliferation OCI-Ly10 BTK-C481S IC50
Method: as §2
BTK-C481S-mutant lymphoma cells were used to examine changes in IC50 values of the BTK inhibitor in the presence of various concentrations of BCL-2 inhibitor.
From the results obtained for the BCL-2 inhibitor used as a single agent, BCL-2 inhibitor concentrations for three doses were selected for BTK-C481-mutant OCI-Ly10 cells.

U2932 cells [4] = experiment: Dose-response study of BTK inhibitor in the presence of BCL-2 inhibitor, U2932; type: cell-based; conditions: Homo sapiens, read-out: Inhibitory activity on cell proliferation U2932 IC50
Method: as §1
(§3) Changes in IC50 values of the BTK inhibitor in the presence of the BCL-2 inhibitor at various concentrations were examined.
From the result obtained for the BCL-2 inhibitor used as a single agent, BCL-2 inhibitor concentrations for three doses were selected for each cancer cell line.

OCI-Ly10 cells [5] = experiment: Dose-response study of BTK inhibitor in the presence of BCL-2 inhibitor, OCI-Ly10; type: cell-based; conditions: Homo sapiens, read-out: Inhibitory activity on cell proliferation OCI-Ly10 IC50
Method: as §1, §3

U2932 cells [6] = experiment: Cell proliferation suppression test of single agents, U2932 (Alamar Blue, 96 h); type: cell-based, Human; conditions: Homo sapiens, U2932, single agent, read-out: Inhibitory Activity on cell proliferation IC50 U2932
Method: Human lymphoma cell line U2932 cells (obtained from DSMZ) were cultured in a 5% CO2 incubator using RPMI medium (Roswell Park Memorial Institute medium, Thermo Fisher Scientific Inc.) containing 10% fetal bovine serum (GE Healthcare) and 1% penicillin streptomycin (NACALAI TESQUE, INC.).
as §1

[7] = OCI-Ly10, in the presence of S-55746 10 nM
[8] = OCI-Ly10, in the presence of S-55746 30 nM
[9] = OCI-Ly10, in the presence of S-55746 100 nM
[10] = OCI-Ly10, in the presence of navitoclax 10 nM
[11] = OCI-Ly10, in the presence of navitoclax 30 nM
[12] = OCI-Ly10, in the presence of navitoclax 100 nM
[13] = OCI-Ly10, in the presence of obatoclax mesylate 50 nM
[14] = OCI-Ly10, in the presence of obatoclax mesylate 100 nM
[15] = OCI-Ly10, in the presence of obatoclax mesylate 200 nM
[16] = OCI-Ly10, in the presence of venetoclax 1 nM
[17] = OCI-Ly10, in the presence of venetoclax 3 nM
[18] = OCI-Ly10, in the presence of venetoclax 10 nM
[19] = OCI-Ly10, obatoclax mesylate 0 nM

Compound: Cn1cc(Nc2nc(N)nc(-c3cccc(-n4ccc5cc(C6CC6)cc(F)c5c4=O)c3CO)n2)cn1 [Compound (II-A), 2-(3-{4-Amino-6-[(1-methyl-1H-pyrazol-4-yl)amino]-1,3,5-triazin-2-yl}-2-(hydroxymethyl)phenyl)-6-cyclopropyl-8-fluoroisoquinolin-1(2H)-one]
- IC50 (OCI-Ly10 cells [1]): 42 nM
- IC50 [2]: 150 nM
- IC50 ([3]; OCI-Ly10, S-55746 0 nM): 150 nM
- IC50 [3, 7]: 94 nM
- IC50 [3, 8]: 69 nM
- IC50 [3, 9]: 39 nM
- IC50 [3, 10]: 260 nM
- IC50 [3, 11]: 210 nM
- IC50 [3, 12]: 110 nM
- IC50 [3, 13]: 100 nM
- IC50 [3, 14]: 95 nM
- IC50 [3, 15]: 61 nM
- IC50 [3, 16]: 110 nM
- IC50 [3, 17]: 80 nM
- IC50 [3, 18]: 53 nM
- IC50 ([3]; OCI-Ly10, navitoclax 0 nM): 340 nM
- IC50 [3, 19]: 300 nM
- IC50 ([3]; OCI-Ly10, venetoclax 0 nM): 150 nM
- IC50 (U2932 cells [4]; U2932, S-55746 0 nM): > 30000 nM
- IC50 (U2932 cells [4]; U2932, in the presence of S-55746 100 nM): 5740 nM
- IC50 (U2932 cells [4]; U2932, in the presence of S-55746 300 nM): 930 nM
- IC50 (U2932 cells [4]; U2932, in the presence of S-55746 1000 nM): 100 nM
- IC50 (U2932 cells [4]; U2932, in the presence of navitoclax 30 nM): 13400 nM
- IC50 (U2932 cells [4]; U2932, in the presence of navitoclax 100 nM): 1360 nM
- IC50 (U2932 cells [4]; U2932, in the presence of navitoclax 300 nM): 100 nM
- IC50 (U2932 cells [4]; U2932, in the presence of obatoclax mesylate 50 nM): 28700 nM
- IC50 (U2932 cells [4]; U2932, in the presence of obatoclax mesylate 100 nM): 25800 nM
- IC50 (U2932 cells [4]; U2932, in the presence of venetoclax 3 nM): 8510 nM
- IC50 (U2932 cells [4]; U2932, in the presence of venetoclax 10 nM): 2190 nM
- IC50 (U2932 cells [4]; U2932, in the presence of venetoclax 100 nM): 160 nM
- IC50 (U2932 cells [4]; U2932, navitoclax 0 nM): > 30000 nM
- IC50 (U2932 cells [4]; U2932, obatoclax mesylate 0 nM): > 30000 nM
- IC50 (U2932 cells [4]; U2932, venetoclax 0 nM): > 30000 nM
- IC50 (OCI-Ly10 cells [5]; OCI-Ly10, S-55746 0 nM): 33 nM
- IC50 (OCI-Ly10 cells [5]; [7]): 29 nM
- IC50 (OCI-Ly10 cells [5]; [8]): 25 nM
- IC50 (OCI-Ly10 cells [5]; [9]): 18 nM
- IC50 (OCI-Ly10 cells [5]; [10]): 51 nM
- IC50 (OCI-Ly10 cells [5]; [11]): 42 nM
- IC50 (OCI-Ly10 cells [5]; [12]): 26 nM
- IC50 (OCI-Ly10 cells [5]; [13]): 25 nM
- IC50 (OCI-Ly10 cells [5]; [14]): 28 nM
- IC50 (OCI-Ly10 cells [5]; [15]): 30 nM
- IC50 (OCI-Ly10 cells [5]; [16]): 38 nM
- IC50 (OCI-Ly10 cells [5]; [17]): 27 nM
- IC50 (OCI-Ly10 cells [5]; [18]): 19 nM
- IC50 (OCI-Ly10 cells [5]; OCI-Ly10, navitoclax 0 nM): 59 nM
- IC50 (OCI-Ly10 cells [5]; [19]): 38 nM
- IC50 (OCI-Ly10 cells [5]; OCI-Ly10, venetoclax 0 nM): 42 nM
- IC50 (U2932 cells [6]): 34700 nM
